The record followed here is ChEMBL document CHEMBL2434967, “Synthesis, characterization, antiparasitic and cytotoxic evaluation of thioureas conjugated to polyamine scaffolds” (Eur J Med Chem, 2013).

Assay [1] can be described thus: Cytotoxicity against human WHCO1 cells after 48 hrs by MTT assay. The format is functional, cell-based. As to conditions: WHCO1, 48 h.
Assay [2] deals with Plasmodium falciparum. Kind of assay: Antiplasmodial activity against chloroquine-resistant erythrocyte stages of Plasmodium falciparum Dd2 by parasite lactate dehydrogenase assay. Format: functional, organism-based.
For a further assay, the system named is Trichomonas vaginalis. Description: Antimicrobial activity against Trichomonas vaginalis G3 assessed as growth inhibition at 10 uM after 24 hrs by hemocytometry. The format is functional. The settings on record: G3, 24 h, read-out: GI.
Assay [3] is described as follows: Inhibition of beta-hematin formation after overnight incubation by NP-40 detergent-mediated spectroscopic analysis. Format: functional.
The subject of assay [4] is Plasmodium falciparum. Kind of assay: Antiplasmodial activity against chloroquine-sensitive erythrocyte stages of Plasmodium falciparum NF54 by parasite lactate dehydrogenase assay. Format: functional, organism-based.
Assay [5] concerns Plasmodium falciparum. Description: Resistance index, ratio of IC50 for chloroquine-resistant Plasmodium falciparum Dd2 to IC50 for chloroquine-sensitive Plasmodium falciparum NF54. The format is functional.

On to `S=C(NCCCNc1ccnc2cc(Cl)ccc12)NCCCN(CCCCN(CCCNC(=S)NCCCNc1ccnc2cc(Cl)ccc12)CCCNC(=S)NCCCNc1ccnc2cc(Cl)ccc12)CCCNC(=S)NCCCNc1ccnc2cc(Cl)ccc12`, for which the IC50 in assay [1] was 990 nM; in the assay with Plasmodium falciparum [2], 510 nM; in assay [3], less than 4500 nM; in the assay on Plasmodium falciparum [4], 200 nM. Moreover, in the assay with Trichomonas vaginalis, the inhibition of growth at 10 µM was determined as 58.7%. Moreover, the “Ratio IC50” value in the assay on Plasmodium falciparum [5] was found to be 2.5.

For the molecule `CCN(CC)CCCC(C)Nc1ccnc2cc(Cl)ccc12` (stereo unspecified) [CHLOROQUINE], the IC50 in assay [3] came to 73800 nM.

Take `S=C(NCCCNc1ccnc2cc(Cl)ccc12)NCCN(CCNC(=S)NCCCNc1ccnc2cc(Cl)ccc12)CCNC(=S)NCCCNc1ccnc2cc(Cl)ccc12`: the IC50 amounted to 6210 nM in assay [1], 520 nM in the assay on Plasmodium falciparum [2], 4480 nM in assay [3] and 90 nM in the assay on Plasmodium falciparum [4]. In addition, the inhibition of growth at 10 µM in the assay on Trichomonas vaginalis was 51.4%. In addition, the “Ratio IC50” value with Plasmodium falciparum [5] was 5.8.

For `Cc1ncc([N+](=O)[O-])n1CCO` [METRONIDAZOLE], in the assay on Trichomonas vaginalis, the inhibition of growth at 10 µM is 100%.

For the molecule `CCCNC(=S)NCCCNc1ccnc2cc(Cl)ccc12`, the half-maximal inhibitory concentration (IC50) in assay [1] was found to be 43800 nM; with Plasmodium falciparum [2], 260 nM; in assay [3], 58200 nM; with Plasmodium falciparum [4], 160 nM. Moreover, the inhibition of growth at 10 µM with Trichomonas vaginalis was determined as 34.9%. Also, the “Ratio IC50” value in the assay on Plasmodium falciparum [5] stood at 1.6.

Turning to `S=C(NCCCNC(=S)NCCCNc1ccnc2cc(Cl)ccc12)NCCCNc1ccnc2cc(Cl)ccc12`, the IC50 came out at 38400 nM in assay [1], 230 nM in the assay with Plasmodium falciparum [2], 6520 nM in assay [3] and 340 nM with Plasmodium falciparum [4]. Also, in the assay on Trichomonas vaginalis, the inhibition of growth at 10 µM came to 55.9%. Further, the “Ratio IC50” value in the assay with Plasmodium falciparum [5] is reported as 0.7.
